Assay results published in PMC9499467, “Phenanthroindolizidine Alkaloids Isolated from Tylophora ovata as Potent Inhibitors of Inflammation, Spheroid Growth, and Invasion of Triple-Negative Breast Cancer” (International Journal of Molecular Sciences, 2022).
Where two headings read alike, the source gives them in different places.

Experiments:
MDA-MB-468-UnaG [1] = assay: Cell cycle studies (PI-DNA flow cytometry) in MDA-MB-468-UnaG; assay type: cell-based; details: normoxia
Method: To investigate cell cycle progression in the presence of compound (1s) or paclitaxel (Santa Cruz Biotechnology; #sc-201439), we quantified the DNA content in the cell. On day 1, the cells were seeded in 1 mL into a 24 well plate (Greiner; #662160). On day 2, MDA-MB-468-UnaG were pre-treated either without (normoxia) or with 100 µM CoCl2 (hypoxia) (Sigma-Aldrich; #C8661) for 24 h before compounds were applied. On day 2 for MDA-MB-231 or on day 3 for MDA-MB-468-UnaG, paclitaxel was applied at the concentrations 15 nM, 37 nM, and 100 nM, and compound (1s) was applied at concentrations ranging from 2 nM to 1000 nM. Post-treatment cells were washed in 1× PBS (Thermo Fisher Scientific; #14190); fixed in 70% (v/v) ethanol overnight at 4 °C; washed again in 1× PBS; and, finally, DNA was stained for 15 min at 37 °C in the presence of 10 µg/mL propium iodide (PI; Sigma-Aldrich; #4864) and 100 µg/mL RNase A (Thermo Fisher Scientific; #EN0531) dissolved in 0.1% triton™ X-100 (Sigma-Aldrich; #X100), dissolved in PBS. The fluorescence signal resulting from PI-DNA complex formation was recorded using the flow cytometer CytoFlex (Beckmann Coulter, Krefeld, Germany). The cell cycle phase population was determined based on the DNA content in a set of chromosomes (n) in a cell using the integrated software CytExpert (Beckmann Coulter): sub-G0/G1 (<2n), G0/G1 (2n), S (>2n, <4n), G2/M (4n) or hyperploid cells (>4n) (see Figure S10).

MDA-MB-231 = assay: 2D cell viability (PrestoBlue resazurin) in MDA-MB-231; assay type: cell-based, human; details: Homo sapiens
Method: Cell viability was determined based on resazurin-reduction in viable cells according to the PrestoBlue^TM Assay. On day 1, MDA-MB-231 (1.5 × 10^4 cells per well or 7.5 × 10^3 cells per well) were seeded into black 96 well plates (Greiner; #655090) in a total volume of 100 µL. On day 2, the compounds or DMSO (Roth; #A994.1) alone at maximal 0.1% were applied (final concentrations after serial dilution shown in Table 3). An amount of 20 µM staurosporine (Sigma-Aldrich; #S5921) served as a positive control. On day 3, the PrestoBlue^TM reagent (Invitrogen^TM, Darmstadt, Germany; #A13262) was applied according to the manufacturer`s instructions. Finally, cell viability-dependent fluorescence was recorded in relative fluorescence units (RFU) with excitation/emission (Exλ/Emλ) at 535/590 nm or 560/590 nm, using the microplate reader Spark® (Tecan).

MDA-MB-468-UnaG [2] = assay: 2D cell viability in MDA-MB-468-UnaG under normoxia or CoCl2-simulated hypoxia
[3] = tested on: 3D co-culture spheroids of MDA-MB-231 and primary murine CAFs; assay: 3D cell viability (ATP content) in TNBC co-culture spheroids; assay type: cell-based, human MDA-MB-231; details: Mus musculus, MDA-MB-231
Method: On day 1, 3000 cells were seeded into a low-attachment 96 well plate (Greiner; #650970). […] Cell viability was determined based on the ATP content in viable cells according to the manufacturer`s instructions (Promega #G9682). Co-culture spheroids were generated for 72 h before they were grown for another 72 h with or without exposure to the compounds. […] Cell viability-dependent luminescence was determined as relative light units (RLU) using the microplate reader Spark® (Tecan).

[4] = tested on: 3D co-culture spheroids of MDA-MB-231 and primary murine CAFs; assay: 3D growth studies, spheroid size of co-culture spheroids; assay type: cell-based, human MDA-MB-231; details: 100 nM, 72 h
Method: To emulate the TNBC microenvironment, 3D spheroids composed of MDA-MB-231 and CAFs at a ratio of 1:2 in a collagen-based matrix were generated. The culture medium of both cell lines was mixed (DMEM:RPMI 1640 (1:1) + 12.5% FCS + 1% PS) and supplemented with 0.05 mg/mL collagen type I (Thermo Fisher Scientific; #A1048301). On day 1, 3000 cells were seeded into a low-attachment 96 well plate (Greiner; #650970). Spheroids were grown for 72 h before proceeding with compound treatment on day 4, and analysis on day 7 according to the “Spheroid immunostaining”, “3D cell viability”, or “3D growth” studies presented in the results section.
Co-culture spheroids were generated for 72 h before they were exposed to either DMSO (Roth; #A994.1) alone at maximal 0.1%, 100 nM paclitaxel (Santa Cruz Biotechnology; #sc-201439), or 100 nM of compound (1) for another 72 h. At least three spheroids per treatment group were analyzed. For that purpose, brightfield images of the spheroids were acquired at 100× g magnification using the microscope Axio Vert.A1 (Zeiss). The spheroid surface area was quantified in brightfield images using Fiji (open-source software; version 1.52i) and was further defined as spheroid size. In each individual experiment spheroid size was normalized to the smallest (which was set to 0%) and to the largest spheroids (which was set to 100%).

NFκB [5] = assay: NFκB inhibition assay (24 h), NFκB-dependent firefly luciferase reporter; assay type: cell-based; details: Homo sapiens; NFκB-MDA-MB-231-firefly cells, 24-h treatment, 20 ng/mL TNFα, mean ± SD; read-out: NFκB Inhibition 24 h IC50
Method: On day 1, 3 × 10^4 NFκB MDA-MB-231-firefly cells were seeded into white 96 well plates (Greiner; #655098). On day 2, the medium was replaced with starvation medium and the cells were pre-incubated for 20 min with either 100 µL of DMSO (Roth; #A994.1) alone at maximal 0.1%, or with the final concentration of the diluted compounds (Table 3). To activate NFκB signaling, cells were stimulated with 20 ng/mL TNFα (Peprotech, Hamburg, Germany; #300-01A). Cell lysis was performed in 20 µL 1× cell lysis buffer according to the manufacturer’s instruction for the Luciferase Assay System (Promega #E1500). NFκB-dependent luminescence was determined as relative light units (RLU) using the microplate reader Spark® (Tecan).

NFκB [6] = assay: NFκB inhibition assay (2 h), NFκB-dependent nanoluc luciferase reporter; assay type: cell-based, human; details: Homo sapiens; NFκB-MDA-MB-231-nanoluc cells, 2-h treatment, mean ± SD; read-out: NFκB Inhibition 2 h IC50
Method: Experiments were performed according to the published protocol. On day 1, 4 × 10^4 NFκB-MDA-MB-231-nanoluc cells were seeded into white 96 well plates (Greiner; #655098). On day 2, the medium was replaced with starvation medium and the cells were pre-incubated for 20 min with either 100 µL of DMSO (Roth; #A994.1) alone at a concentration of maximal 0.1% or with the final concentration of the diluted compounds (Table 3). To activate NFκB signaling, cells were stimulated with 1 µg/mL LPS (Sigma-Aldrich; #L2630) beforehand. NFκB-dependent luciferase activity was measured according to the manufacturer`s protocol for the Nano-Glo Luciferase Assay System (Promega, Mannheim, Germany; #N1110). NFκB-dependent luminescence was determined as relative light units (RLU) using the microplate reader Spark® (Tecan, Männedorf, Switzerland).

SMILES: CC(=O)O[C@H]1C(=O)[C@@]2(C)[C@H]([C@H](OC(=O)c3ccccc3)[C@]3(O)C[C@H](OC(=O)[C@H](O)[C@@H](NC(=O)c4ccccc4)c4ccccc4)C(C)=C1C3(C)C)[C@]1(OC(C)=O)CO[C@@H]1C[C@@H]2O [Paclitaxel, paclitaxel, reference compound]
- sub-G0/G1 population (MDA-MB-468-UnaG [1]; 48 h): increase in the sub-G0/G1 population
- cell cycle phase population (MDA-MB-468-UnaG [1]; (1s) 20 nM 72 h, paclitaxel within 24 h): significantly induces a G2/M arrest
- IC50 (MDA-MB-231; MDA-MB-231 2D monolayer, 24 h post-treatment, mean ± SD, read-out: Reduction of Cell Viability 24 h IC50): 37.4 ± 8.6 nM
- IC50 (MDA-MB-231; MDA-MB-231, 24 h, one individual experiment (Figure S3a), read-out: IC50 of representative dose-response, 2D cell viability): 36.9 nM
- IC50 (MDA-MB-468-UnaG [2]; 24 h, read-out: cell viability IC50, hypoxia): > 1000 nM
- decrease of cytotoxic effects by hypoxia (factor) (MDA-MB-468-UnaG [2]; hypoxia vs normoxia, MDA-MB-468-UnaG): ≥ 100
- IC50 (MDA-MB-468-UnaG [2]; read-out: cell viability IC50, normoxia): 7.7 nM
- IC50 ([3]; 3D co-culture spheroids, 72 h treatment, mean ± SD (n = 3), read-out: Reduction of Cell Viability 72 h IC50): 43 ± 14.3 nM
- IC50 ([3]; co-culture spheroids, 72 h, one individual experiment (Figure S3b), read-out: IC50 of representative dose-response, 3D cell viability): 42.8 nM
- reduction of spheroid growth compared to untreated spheroids [4]: 25%
- IC50 (NFκB [5]): > 1000 nM
- IC50 (NFκB [6]): > 1000 nM
